From patent US20040024056A1, “Dihydrofuran cyclic tanshinones used in treating hyperammonemia and hepatic encephalopathy” (priority 2001, published 2004) come the findings set out here.

For data set [1], the system named is healthy male mice. As to the kind of experiment: 30 days toxicity test in mouse. It counts as in vivo. As to conditions: intragastric, 200 mg/kg day. As to the method: The drug was continually administrated intragastrically for 30 days with dose of 200 mg/kg day.
Data set [2] deals with acute hepatocirrhosis hyperammnonemia rat model. As to the kind of experiment: Coma and death caused by acute hepatocirrhosis in rats (in injection). It counts as in vivo, SD rats. As to conditions: Table 9; i.p. 4 days, Cryptotanshinone 10 mg/kg, sodium glutamate 410 mg/kg; tetrachloro-methane peanut oil; 8.5 mmol/kg acetamide i.p. on 4th day. As to the method: The animals used in this experiment were 40 healthy male SD rats weighing 250-300 g. They were randomly divided into 4 groups, that is, group of normal control, experimental control (acetamide group), sodium glutamate/acetamide group, and Cryptotanshinone/acetamide group. The rats in all those groups except the normal control group were injected intraperitoneally with saline, sodium glutamate injection (with a dose of 410 mg/kg), and saline solution of Cryptotanshinone (containing small amount of surface active agent, with a dose of 10 mg/kg) respectively. 45 min after the injection, the rats in all those groups except the normal control group were injected intraperitoneally with peanut oil containing 0.1% tetrachloro-methane. Above injections continued for 4 days. In the 4th day, 45 min after the tetrachloride peanut oil injection, the rats in each group (including the normal control group) were injected intraperitoneally with 8.5 mmol/kg acetamide solution. The time from acetamide injection to coma (latent period), from coma to awakening (coma time) and death rate in rats was recorded.

Data set [3] deals with healthy male mice. As to the kind of experiment: Acute toxicity test in mouse. An excerpt:
Acute toxicity test in mouse: The animals used in this study were healthy male mice. The drug was administrated intragastrically for 7 days once daily.

In data set [4] the test system is hyperammonemia rats. As to the kind of experiment: Blood ammonia reducing experiment (in oral), acetamide-treated rats. Type of data set: in vivo, SD rats. As to the method: In the 4th day, 30 min after the acetamide injection, blood samples of the rats in each group were collected by eyeball removing method immediately, and processed with the anticoagulant EDTA-Na, then the blood ammonia concentration was determined.
(§1) With the same experiment method, 90 min after the acetamide injection at the 4th day, blood samples of the rats in each group were collected by eyeball removing method immediately, and processed with the anticoagulant EDTA-Na, then the blood ammonia concentration was determined.

In data set [5] the test system is acute hepatocirrhosis hyperammnonemia rat model. Put plainly: Coma and death caused by acute hepatocirrhosis in rats (in oral). Type of data set: in vivo, SD rats. As to conditions: Table 10; Cryptotanshinone oral 100 mg/kg; tetrachloro-methane peanut oil; 8.5 mmol/kg acetamide i.p. on 4th day. On the procedure:
The time from acetamide injection to coma (latent period), from coma to awakening (coma time) and death rate in rats was recorded.

The subject of data set [6] is hyperammonemia rats. Put plainly: Blood ammonia reducing experiment (in injection), acetamide-treated rats. It counts as in vivo, SD rats. As to conditions: for Blood ammonia concentration / Reduction rate: i.p. for 4 days, sodium glutamate 410 mg/kg. On the procedure: The animals used in this experiment were 50 healthy male SD rats weighing 250-300 g. They were randomly divided into 5 groups, that is, group of normal control, experimental control (acetamide group), sodium glutamate/acetamide group, Dihydortanshinone I/acetamide group and tanshinone IIA/acetamide group. The rats in all those groups except the normal control group were injected intraperitoneally with saline, sodium glutamate injection (with a dose of 410 mg/kg), saline solution of Dihydortanshinone I (containing small amount of surface active agent, with a dose of 10 mg/kg), saline solution of tanshinone IIA (containing small amount of surface active agent, with a dose of 10 mg/kg) respectively. 45 min after the injection, the rats in all those groups except control group were injected intraperitoneally with 5.5 mmol/kg acetamide. Above injections continued for 4 days. In the 4th day, 30 min after the acetamide injection, blood samples of the rats in each group were collected by eyeball removing method immediately, and processed with the anticoagulant EDTA-Na, then the blood ammonia concentration was determined using conventional method. […] The dose of […] in this example and following examples was settled with the reference of its actual clinical dose. The method for determining the blood ammonia concentration in this example and following examples was enzyme-UV method, the instrument used was HITACHI-7170 automatic analyzer, and the kit used was AMMONIA kit.
as §1
The animals used in this experiment were 40 healthy male SD rats weighing 250-300 g. They were randomly divided into 4 groups, that is, normal control group, experimental control group (acetamide group), sodium glutamate/acetamide group, and Cryptotanshinone/acetamide group. The rats in all those groups except the normal control group were injected intraperitoneally with saline, sodium glutamate injection (with a dose of 410 mg/kg), and saline solution of Cryptotanshinone (containing small amount of surface active agent, with a dose of 10 mg/kg) respectively. 45 min after the injection, the rats in all those groups except the normal control group were injected intraperitoneally with 5.5 mmol/kg acetamide. Above injections continued for 4 days. In the 4th day, 30 min after the acetamide injection, blood samples of the rats in each group were collected by eyeball removing method immediately, and processed with the anticoagulant EDTA-Na, then the blood ammonia concentration was determined.

Setting [7] is: Table 7, Cryptotanshinone in oral (intragastric 100 mg/kg), blood 30 min after acetamide on 4th day.
Setting [8] is: Table 8, Cryptotanshinone in oral (intragastric 100 mg/kg), blood 90 min after acetamide on 4th day.
[9] abbreviates: Table 3, Cryptotanshinone 10 mg/kg, blood 30 min after acetamide on 4th day.
The mark [10] stands for this setting: Table 4, Cryptotanshinone 10 mg/kg, blood 90 min after acetamide on 4th day.
The mark [11] stands for this setting: Table 5, tanshinones intragastric 100 mg/kg, acetamide 120 min later, blood 30 min after acetamide on 4th day.
Where [12] appears, read: Table 6, tanshinones intragastric 100 mg/kg, blood 90 min after acetamide on 4th day.
Where [13] appears, read: Table 1, tanshinones 10 mg/kg, blood 30 min after 5.5 mmol/kg acetamide on 4th day.
[14] abbreviates: Table 1, tanshinones 10 mg/kg, blood 30 min after acetamide on 4th day.
The mark [15] stands for this setting: Table 2, tanshinones 10 mg/kg, blood 90 min after acetamide on 4th day.

As a reminder, the LD50 is the dose at which mortality reaches 50%.

SMILES strings stand for the structures.

As for `C[C@H]1COC2=C1C(=O)C(=O)c1c2ccc2c1CCCC2(C)C` [Cryptotanshinone, 1,6,6-trimethyl-1,2,6,7,8,9-hexahydrophenanthrene[1,2-b]furan-10,11-dione], in the data set with healthy male mice [1], the Death of mice result is “no death of mice manifested”; the “Growth and development, hematopoietic function, biochemical index” value was “no apparent abnormal change or toxic reaction”; the “Pathology of major organs (anatomical and tissue microscopy inspection)” value is “No pathology change of major organs”. Further, in data set [2], the “Coma time (from coma to awakening)” value was 65 min, the “Latent period (time from acetamide injection to coma)” value (shortened to “Latent period”) is reported as 12 min and the Mortality is 20%. Moreover, in the data set with healthy male mice [3] (mice, intragastric, once daily for 7 days), the LD50 was > 1500 mg/kg. For the same molecule, the “Toxic symptom or death” value with healthy male mice [3] (mice, intragastric, once daily for 7 days, dose up to 1.5 g/kg) is given as “no toxic symptom or death”. The “Toxicity, overall conclusion” value in the data set with healthy male mice [3] (summary statement) is listed as “safe to use as drug in normal dosage”. In the data set with hyperammonemia rats [4] (setting [7]), this molecule showed a Blood ammonia concentration of 470 µmol/L and a Reduction rate of 54%. In the data set on hyperammonemia rats [4] (setting [8]), this molecule had a Blood ammonia concentration of 120 µmol/L and a Reduction rate of 97%. In data set [5], the “Coma time (from coma to awakening)” value came to 75 min, the “Latent period” value came out at 12 min and the Mortality was 20%. In the data set with hyperammonemia rats [6] (setting [9]), the Blood ammonia concentration was found to be 420 µmol/L and the Reduction rate came to 60%. Moreover, in the data set on hyperammonemia rats [6] (setting [10]), the Blood ammonia concentration turned out to be 110 µmol/L and the Reduction rate was found to be 100%.
As to `Cc1cccc2c3c(ccc12)C1=C(C(=O)C3=O)C(C)CO1` (centres unmarked) [Dihydortanshinone I, 1,6-dimethyl-1,2-dihydrophenanthrene[1,2-b]furan-10,11-dione], the Blood ammonia concentration turned out to be 550 µmol/L in the data set on hyperammonemia rats [4] (setting [11]), 135 µmol/L in the data set on hyperammonemia rats [4] (setting [12]), 490 µmol/L in the data set on hyperammonemia rats [6] (setting [13]) and 125 µmol/L in the data set with hyperammonemia rats [6] (setting [15]). The Reduction rate in the data set on hyperammonemia rats [4] (setting [11]) worked out at 44%; in the data set with hyperammonemia rats [4] (setting [12]) it was 89%; in the data set with hyperammonemia rats [6] (setting [14]), 51%; with hyperammonemia rats [6] (setting [15]), 96%.
Consider `N[C@@H](CCC(=O)[O-])C(=O)[O-].[Na+].[Na+]` [Sodium Glutamate], for which the results for the “Coma time (from coma to awakening)” value in data set [2] and in data set [5] were 75 min and 90 min, respectively. Besides, the “Latent period” value in data set [2] stood at 11 min; in data set [5] it was 9 min. In addition, the Mortality in data set [2] and in data set [5] was 50% throughout. Further, the Blood ammonia concentration in the data set with hyperammonemia rats [4] (setting [11]) was 510 µmol/L; with hyperammonemia rats [4] (setting [12]), 130 µmol/L; in the data set with hyperammonemia rats [4] (setting [7]) it was 510 µmol/L; with hyperammonemia rats [4] (setting [8]), 130 µmol/L; in the data set on hyperammonemia rats [6] (setting [13]), 480 µmol/L; in the data set on hyperammonemia rats [6] (setting [15]), 120 µmol/L. Further, the Blood ammonia concentration with hyperammonemia rats [6] (setting [9]) stood at 480 µmol/L; with hyperammonemia rats [6] (setting [10]), 110 µmol/L. Besides, the Reduction rate with hyperammonemia rats [4] (setting [11]) came out at 49%; in the data set on hyperammonemia rats [4] (setting [12]), 91%; with hyperammonemia rats [4] (setting [7]) it was 49%; in the data set on hyperammonemia rats [4] (setting [8]), 91%; with hyperammonemia rats [6] (setting [14]), 53%; in the data set on hyperammonemia rats [6] (setting [15]) it was 97%. Moreover, the Reduction rate with hyperammonemia rats [6] (setting [9]) is recorded as 53%; in the data set with hyperammonemia rats [6] (setting [10]), 100%.
`Cc1coc2c1C(=O)C(=O)c1c-2ccc2c1CCCC2(C)C` [Tanshinone IIA]: the Blood ammonia concentration with hyperammonemia rats [4] (setting [11]) was 865 µmol/L; with hyperammonemia rats [4] (setting [12]), 270 µmol/L; with hyperammonemia rats [6] (setting [13]) it was 850 µmol/L; in the data set on hyperammonemia rats [6] (setting [15]), 265 µmol/L. Besides, the Reduction rate with hyperammonemia rats [4] (setting [11]) is recorded as <4%; in the data set on hyperammonemia rats [4] (setting [12]) it was <10%; in the data set with hyperammonemia rats [6] (setting [14]) it was <5%; in the data set on hyperammonemia rats [6] (setting [15]), <12%. Besides, the “Function to reduce the blood ammonia concentration” value with hyperammonemia rats [6] (hyperammonemia animal model, summary statement) is “have no such function”.
